What was measured:
[1] = system: NGF production in the L-M cells; test: Enhancing activity for NGF production, Example 13 method (20 hours culture after addition); format: cell-based, murine; conditions: for activity at 12.5 µM: added amount 12.5 μM; for activity at 6.25 µM: added amount 6.25 μM; for activity at 3.125 µM: added amount 3.125 μM; for Enhancement of NGF production (in words): L-M cells
Method: (§1) L-M cells (ATCC CCL-1.2) from murine fibroblasts were suspended in an M199 medium (manufactured by ICN) containing 0.5% bactopeptone (manufactured by Gibco BRL) so as to have a concentration of 1.5×10^5 cells/mi. The suspension was put in a 96-well plate in an amount of 0.1 ml each well, and the cells were aseptically cultured. After culturing the cells for 3 days, the medium was removed therefrom, and exchanged with an M199 medium containing 0.5% bovine serum albumin (manufactured by Sigma). Caffeic acid (manufactured by Sigma, dimethyl suif oxide (DMSO) solution), a substance known to have enhancing activity for NGF production, was added to each well containing the cells, so as to have a final concentration of 0, 50, 100 or 200 μM, and the cells were cultured for 24 hours. One having a caffeic acid concentration of 0 μM was used as a negative control. In addition, the final concentration of DM50 in each well was adjusted to 0.1%. After the termination of the culture, the NGF concentration in the culture medium was determined by an enzyme immunoassay method (NGF Emax Immuno Assay System, manufactured by Promega). The degree of the enhancement for NGF production of caffeic acid at each added amount was expressed in percentage as the enhancement ratio (%) on the basis of the NGF concentration in the cell culture medium at each added amount, when the NGF concentration in the cell culture medium of the negative control was defined as 100%. The experiment was carried out twice, and an average value was taken. It was shown that the enhancing activity for NGF production of caffeic acid could be assayed by this method.
The enhancing activity for NGF production of each of the compounds (5) to (12), (17) to (22), (24) and (25) prepared in Preparation Examples 2 to 9 and Examples 1 to 8, and the compound (23) (rosemarinic acid; manufactured by Funakoshi), or caffeic acid (CA), 4-methylcatechol (4MC) and epinephrine (EN), substances conventionally known to enhance NGF production was assayed in the same manner as in Reference Example 1. In addition, the time period for cell culture after the addition of the compound was 20 hours. A negative control was set for every test of each compound. Each experiment was carried out twice, and an average value was taken.
(1) L-M cells (ATCC CCL-1.2) from murine fibroblasts were suspended in an M199 medium (manufactured by ICN) containing 0.5% bactopeptone (manufactured by Gibco) so as to have a concentration of 1.5×10^5 cells/ml. The suspension was put in a 96-well plate in an amount of 0.1 ml each well, and the cells were aseptically cultured. After culturing the cells for 3 days, the medium was removed therefrom, and exchanged with an M199 medium containing 0.5% bovine serum albumin (manufactured by Sigma). Thereto was added an yellow pigment (powder Sun Yellow No. 2, manufactured by San-Ei Gen F.F.I.) obtained by extraction from flower of Carthamus tinctorius LINNE) as the sample so as to have a final concentration of 0, 1.25, 2.5 or 5 mg/ml, and the cells were cultured for 20 hours. After the termination of the culture, the NGF concentration in the culture medium was assayed by an enzyme immunoassay method (NGF Emax Immuno Assay System, manufactured by Promega). The degree of the enhancement for NGF production was expressed in the percentage as an enhancement ratio (%), when the NGF concentration in the cell culture medium with no addition of the sample as the negative control was defined as 100%. The experiment was carried out twice, and an average value was taken. […]
The enhancing activity for NGF production of the purified safflomin A thus obtained was determined in the same manner as in Example 13. The purified safflomin A was added so as to have a fmal concentration of 0 or 2.5 mg/ml. […]

[2] = system: NGF production in the L-M cells; test: Enhancing activity for NGF production, Reference Example 1 method (24 hours culture, NGF enzyme immunoassay of culture medium); format: cell-based, murine; conditions: for Enhancement of NGF production (in words): L-M cells; for Enhancement Ratio (%): negative control = 100%
Method: as §1
The enhancing activity for NGF production of the compound (13) (manufactured by Funakoshi) was assayed in the same manner as in Reference Example 1. The compound (13) was added so as to have a final concentration of 0, 0.5, 1, 2, 5, 10, 20 or 50 μM.
The enhancing activity for NGF production of a compound (14) (manufactured by Sigma) was assayed in the same manner as in Reference Example 1. The compound (14) was added so as to have a final concentration of 0, 50, 100 or 200 μM.
The enhancing activity for NGF production of a compound (15) (manufactured by Sigma) was assayed in the same manner as in Reference Example 1. The compound (15) was added so as to have a final concentration of 0, 12.5, 25 or 50 μM.
The enhancing activity for NGF production of a compound (16) (manufactured by Wako Pure Chemical Industries) was assayed in the same manner as in Reference Example 1. The compound (16) was added so as to have a final concentration of 0, 25, 50 or 100 μM.

[3] = Mus musculus, added amount 50 μM, negative control = 100%, read-out: Enhancement Ratio (%)
[4] = Mus musculus, added amount 100 μM, negative control = 100%, read-out: Enhancement Ratio (%)
[5] = Mus musculus, added amount 200 μM, negative control = 100%, read-out: Enhancement Ratio (%)
[6] = Mus musculus, negative control = 100%, read-out: Enhancement Ratio (%)
[7] = Mus musculus, added amount 25 μM, negative control = 100%, read-out: Enhancement Ratio (%)
[8] = added amount 100 μM, negative control = 100%

Compound: O=C(O)/C=C/c1ccc(O)c(O)c1 [CA, caffeic acid, reference compound]
- activity at 50 µM [1, 3]: 165%
- activity at 100 µM [1, 4]: 170%
- activity at 200 µM [1, 5]: 200%
- Enhancement of NGF production (in words) [2]: enhanced NGF production in a concentration-dependent manner
- Enhancement Ratio (%) ([2]; added amount 50 μM): 89.7%
- Enhancement Ratio (%) ([2]; added amount 100 μM): 150%
- Enhancement Ratio (%) ([2]; added amount 200 μM): 349%

Compound: Cc1ccc(O)c(O)c1 [Compound 4MC, 4-methylcatechol, reference compound]
- activity at 12.5 µM [1, 6]: 143%
- activity at 25 µM [1, 7]: 313%

Compound: CC(=O)Oc1ccc(C(=O)/C=C/c2ccc(OC(C)=O)c(OC(C)=O)c2)c(OC(C)=O)c1 [Compound (5), 3,4,2′,4′-Tetraacetylbutein]
- activity at 6.25 µM [1, 6]: 684%

Compound: O=C(/C=C/c1ccc(O)c(O)c1)c1ccc(Cl)cc1Cl [Compound (6), 3,4-Dihydroxy-2′,4′-dichloro chalcone]
- activity at 6.25 µM [1, 6]: 763%
- activity at 12.5 µM [1, 6]: 864%

Compound: COc1ccc(C(=O)/C=C/c2ccc(O)c(O)c2)c(OC)c1 [Compound (7), 3,4-Dihydroxy-2′,4′-dimethoxy chalcone]
- activity at 6.25 µM [1, 6]: 359%
- activity at 12.5 µM [1, 6]: 410%
- activity at 25 µM [1, 7]: 899%

Compound: CC(=O)C=Cc1ccc(O)c(O)c1 [Compound (8), 4-(3,4-Dihydroxyphenyl)-3-buten-2-one]
- activity at 50 µM [1, 3]: 375%
- activity at 100 µM [1, 4]: 676%

Compound: O=C(/C=C/c1ccc(O)c(O)c1)C12CC3CC(CC(C3)C1)C2 [Compound (9), 1-Adamantyl-3-(3,4-dihydroxyphenyl)-2-propen-1-one]
- activity at 3.125 µM [1, 6]: 206%
- activity at 6.25 µM [1, 6]: 550%
- activity at 12.5 µM [1, 6]: 810%

Compound: O=C(CCc1ccc(O)c(O)c1)c1ccc(O)cc1O [Compound (10), Dihydrobutein]
- activity at 6.25 µM [1, 6]: 174%
- activity at 12.5 µM [1, 6]: 333%
- activity at 25 µM [1, 7]: 839%

Compound: O=C(C/C=C/c1ccc(O)c(O)c1)C12CC3CC(CC(C3)C1)C2 [Compound (11), 1-Adamantyl-4-(3,4-dihydroxyphenyl)-3-buten-1-one]
- activity at 0.781 µM ([1]; Mus musculus, added amount 0.781 μM, negative control = 100%, read-out: Enhancement Ratio (%)): 775%
- activity at 1.563 µM ([1]; Mus musculus, added amount 1.563 μM, negative control = 100%, read-out: Enhancement Ratio (%)): 866%

Compound: O=C(CC(O)Cc1ccc(O)c(O)c1)C12CC3CC(CC(C3)C1)C2 (centres unmarked) [Compound (12), 1-Adamantyl-3-hydroxy-4-(3,4-dihyroxyphenyl)-butan-1-one]
- activity at 3.125 µM [1, 6]: 108%
- activity at 6.25 µM [1, 6]: 364%
- activity at 12.5 µM [1, 6]: 966%
- activity at 25 µM [1, 7]: 908%

Compound: O=C(/C=C/c1ccc(O)c(O)c1)OCCc1ccccc1 [Compound (15), Caffeic acid phenylethylester]
- Enhancement of NGF production (in words) [2]: enhanced NGF production in the L-M cells in a concentration-dependent manner
- Enhancement Ratio (%) ([2]; added amount 12.5 μM): 236%
- Enhancement Ratio (%) ([2]; added amount 25 μM): 263%
- Enhancement Ratio (%) ([2]; added amount 50 μM): 320%

Compound: COc1cc(/C=C/C(=O)CC(=O)/C=C/c2ccc(O)c(OC)c2)ccc1O [Compound (16), Curcumin]
- Enhancement of NGF production (in words) [2]: enhanced NGF production in the L-M cells in a concentration-dependent manner
- Enhancement Ratio (%) ([2]; added amount 25 μM): 114%
- Enhancement Ratio (%) ([2]; added amount 50 μM): 116%
- Enhancement Ratio (%) ([2]; added amount 100 μM): 261%

Compound: O=C(/C=C/c1cc(O)c(O)c(O)c1)c1ccc(O)cc1O [Compound (17), 3,4,5,2′,4′-Pentahydroxychalcone]
- activity at 12.5 µM [1, 6]: 195%
- activity at 25 µM [1, 7]: 598%

Compound: O=C(/C=C/c1ccc(O)c(O)c1)c1cc(O)ccc1O [Compound (18), 3,4,2′,5′-Tetrahydroxychalcone]
- activity at 6.25 µM [1, 6]: 471%
- activity at 12.5 µM [1, 6]: 476%
- activity at 25 µM [1, 7]: 874%

Compound: O=C(/C=C/c1ccc(O)c(O)c1)c1ccc(O)c(O)c1 [Compound (19), 3,4,3′,4′-Tetrahydroxychalcone]
- activity at 12.5 µM [1, 6]: 269%
- activity at 25 µM [1, 7]: 312%
- activity at 50 µM [1, 3]: 844%

Compound: O=C(/C=C/c1ccc(O)c(O)c1)c1cc(O)cc(O)c1 [Compound (20), 3,4,3′,5′-Tetrahydroxychalcone]
- activity at 12.5 µM [1, 6]: 346%
- activity at 25 µM [1, 7]: 482%
- activity at 50 µM [1, 3]: 692%

Compound: O=C(/C=C/c1ccc(O)c(O)c1)c1ccccc1O [Compound (21), 3,4,2′-Trihydroxychalcone]
- activity at 25 µM [1, 7]: 223%
- activity at 50 µM [1, 3]: 229%
- activity at 100 µM [1, 4]: 502%

Compound: O=C(/C=C/c1ccc(O)c(O)c1)c1ccc(O)c(O)c1O [Compound (22), 3,4,2′,3′,4′-Pentahydroxy chalcone]
- activity at 50 µM [1, 3]: 124%
- activity at 100 µM [1, 4]: 130%
- activity at 200 µM [1, 5]: 242%

Compound: CNC[C@H](O)c1ccc(O)c(O)c1 [EN, epinephrine, reference compound]
- activity at 50 µM [1, 3]: 137%
- activity at 100 µM [1, 4]: 218%
- activity at 200 µM [1, 5]: 255%

Compound: COc1cc(O)c(CC=C(C)C)c(O)c1C(=O)/C=C/c1ccc(O)cc1 [xanthohumol, Xanthohumol]
- Enhancement of NGF production (in words) [1]: enhanced NGF production in the L-M cells in a concentration-dependent manner
- activity at 15.6 µM ([1]; Mus musculus, added amount 15.6 μM, negative control = 100%, read-out: Enhancement Ratio (%)): 160%
- activity at 31.3 µM ([1]; Mus musculus, added amount 31.3 μM, negative control = 100%, read-out: Enhancement Ratio (%)): 212%
- activity at 62.5 µM ([1]; Mus musculus, added amount 62.5 μM, negative control = 100%, read-out: Enhancement Ratio (%)): 473%
- activity at 125 µM ([1]; Mus musculus, added amount 125 μM, negative control = 100%, read-out: Enhancement Ratio (%)): 897%

Compound: Isoliquiritigenin [Compound (14)]
- Enhancement of NGF production (in words) [2]: enhanced NGF production in the L-M cells in a concentration-dependent manner
- Enhancement Ratio (%) ([2]; added amount 50 μM): 310%
- Enhancement Ratio (%) ([2]; added amount 100 μM): 550%
- Enhancement Ratio (%) ([2]; added amount 200 μM): 1884%

Compound: Rosmarinic acid [Compound (23)]
- Enhancement Ratio (%) [1, 8]: 110.9%
- Enhancement Ratio (%) ([1]; added amount 200 μM, negative control = 100%): 131.1%

Compound: Safflomin A
- Enhancement of NGF production (in words) [1]: enhanced NGF production of the L-M cells
- Enhancement Ratio (%) ([1]; added amount 2.5 mg/ml, negative control = 100%): 130.7%

Compound: Xanthoangelol [Compound (24)]
- Enhancement Ratio (%) ([1]; added amount 25 μM, negative control = 100%): 126.1%
- Enhancement Ratio (%) ([1]; added amount 50 μM, negative control = 100%): 202.6%
- Enhancement Ratio (%) [1, 8]: 265.7%

Compound: α-Hydroxybutein [Compound (25)]
- Enhancement Ratio (%) ([1]; added amount 31.25 μM, negative control = 100%): 160.6%
- Enhancement Ratio (%) ([1]; added amount 62.5 μM, negative control = 100%): 183.6%
- Enhancement Ratio (%) ([1]; added amount 125 μM, negative control = 100%): 273.6%
- Enhancement Ratio (%) ([1]; added amount 250 μM, negative control = 100%): 495.3%

From patent US7268160B2, “Remedies” (Takara Bio, Inc., priority 2000, dated 2007)
